In patent US11872225B2, “Pyruvate kinase modulators and use thereof” (Agios Pharmaceuticals, Inc., priority 2017, dated 2024) one finds AC50 data, which are given here for 32 molecules.

As a reminder, the AC50 is the concentration at which the activity in the assay is half-maximal.

Molecules are shown by their SMILES. Bounds are passed on as bounds.

The target in the experiment is wild type PKM2 (Homo sapiens, UniProt P14618). Nature of the experiment: PKM2 Assay (LDH/NADH-coupled, absorbance at 340 nm). It is filed as biochemical. As to conditions: wild type PKM2 activation; 60 min preincubation at 25° C.; ADP 0.4 mM, PEP 0.11 mM; read-out: PKM2 WT AC50. The protocol: A compound described herein may be tested for its ability to activate PKM2. For simplicity, the activation activity of these compounds is represented as an AC50 in Table 2. In Tables 2, a compound described herein may have an AC50 of wild type PKM2.
Chain of wild type PKM2 (P14618 whole entry): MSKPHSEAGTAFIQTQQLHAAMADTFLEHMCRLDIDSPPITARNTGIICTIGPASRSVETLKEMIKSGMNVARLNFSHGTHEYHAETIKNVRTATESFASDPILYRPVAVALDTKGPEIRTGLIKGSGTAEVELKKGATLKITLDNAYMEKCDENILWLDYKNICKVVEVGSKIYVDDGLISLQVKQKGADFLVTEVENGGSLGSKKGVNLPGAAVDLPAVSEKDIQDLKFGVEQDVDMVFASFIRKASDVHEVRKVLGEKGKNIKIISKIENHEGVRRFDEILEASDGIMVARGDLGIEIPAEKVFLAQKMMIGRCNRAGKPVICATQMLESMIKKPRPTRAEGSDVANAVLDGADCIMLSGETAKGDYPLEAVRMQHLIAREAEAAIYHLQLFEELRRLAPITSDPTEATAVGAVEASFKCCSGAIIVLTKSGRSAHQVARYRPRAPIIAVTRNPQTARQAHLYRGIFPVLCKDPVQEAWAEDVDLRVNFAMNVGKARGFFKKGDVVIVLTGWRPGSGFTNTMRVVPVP
PKM2 enzyme stock solution was diluted to prepare a 1.11× Reaction Mix (without ADP). 1 μL of test compound was first added to the wells followed by 40 μL of 1.11× Reaction Mix (without ADP) and incubated at room temperature (25° C.) for 60 min. The reaction was initiated with 10 μL ADP (0.4 mM final concentration), bringing the final Reaction Mix to 1×, and the reaction progress was measured as changes in absorbance at 340 nm wavelength at room temperature.
Test compound preparation: Test compounds were prepared at 50× final concentration in DMSO. 1 to 3 dilutions were made for 11 points (for example 50 μL of 5000 μM compound was added to 100 μL 100% DMSO to yield a 1667 μM, 50 μL of this added to 100 μL DMSO to yield 556 μM, and so forth). The compounds were added to the assay as a 1 to 50 dilution (1 μL in 50 μL) to yield a top concentration of 100 μM, decreasing 3-fold for 11 points.
Reaction Mix: PKM2 (5 ng/well, 0.1 μg/ml), ADP (0.4 mM), PEP (0.11 mM), NADH (180 μM), LDH (0.005 U/μL, Sigma #L3888), 1 mM DTT, 0.03% BSA in 1× Reaction Buffer
Reaction Buffer: 100 mM KCl, 50 mM Tris pH 7.5, 5 mM MgCl2.
For the molecule `COc1cccc(Cn2ncc3c4sc(C(=O)c5ccccc5)nc4n(C)c3c2=O)c1` [Compound 1], the concentration at half-maximal activity (AC50) is under 300 nM.

For `Cc1nc2c(s1)c1cnn(Cc3cccc(F)c3)c(=O)c1n2C` [Compound 2], the half-maximal activity concentration (AC50) is under 300 nM.

Take `COc1ccccc1Cn1ncc2c3sc(C)nc3n(C)c2c1=O` [Compound 3]: the AC50 was in the range of 301 to 800 nM.

With `CCOC(=O)c1cccc(Cn2ncc3c4sc(C)nc4n(C)c3c2=O)c1` [Compound 4], the concentration at half-maximal activity (AC50) lay in the range of 301 to 800 nM.

`Cc1nc2c(s1)c1cnn(Cc3cccc(C(=O)O)c3)c(=O)c1n2C` [Compound 5]: the AC50 was over 800 nM.

For `Cc1nc2c(s1)c1cnn(Cc3ccc4nn[nH]c4c3)c(=O)c1n2C` [Compound 6], the half-maximal activity concentration (AC50) was in the range of 301 to 800 nM.

For `Cc1nc2c(s1)c1cnn(CO)c(=O)c1n2C` [Compound 7], the AC50 is over 800 nM.

`Cc1nc2c(s1)c1cnn(Cc3cccc4[nH]ncc34)c(=O)c1n2C` [Compound 8]: the AC50 was under 300 nM.

For the molecule `Cc1nc2c(s1)c1cnn(Cc3cccc(F)n3)c(=O)c1n2C` [Compound 9], the AC50 was 301 to 800 nM.

For `COc1cccc(Cn2ncc3c4sc(S(=O)(=O)c5ccccc5)nc4n(C)c3c2=O)c1` [Compound 10], the AC50 was under 300 nM.

On to `C=Cc1nc2c(s1)c1cnn(Cc3cccc(OC)c3)c(=O)c1n2C` [Compound 11], for which the half-maximal activity concentration (AC50) is under 300 nM.

As to `Cc1nc2c(s1)c1cnn(Cc3c[nH]cn3)c(=O)c1n2C` [Compound 12], the AC50 was over 800 nM.

With `COC(=O)c1nc2c(s1)c1cnn(Cc3cccc(OC)c3)c(=O)c1n2C` [Compound 13], the AC50 fell in the range of 301 to 800 nM.

Regarding `Cc1nc2c(s1)c1cnn(Cc3ccc(CO)cc3)c(=O)c1n2C` [Compound 14], the concentration at half-maximal activity (AC50) is over 800 nM.

As for `Cc1nc2c(s1)c1cnn(CCCO)c(=O)c1n2C` [Compound 15], the concentration at half-maximal activity (AC50) is over 800 nM.

For `Cc1nc2c(s1)c1cnn(Cc3cccc([N+](=O)[O-])c3)c(=O)c1n2C` [Compound 16], the concentration at half-maximal activity (AC50) fell in the range of 301 to 800 nM.

As to `Cc1nc2c(s1)c1cnn(Cc3ccc([N+](=O)[O-])cc3)c(=O)c1n2C` [Compound 17], the AC50 was over 800 nM.

`Cc1nc2c(s1)c1cnn(Cc3ccc(N)cc3)c(=O)c1n2C` [Compound 18]: the AC50 is over 800 nM.

Regarding `COc1cccc(Cn2ncc3c4sc(CC5CCCCC5)nc4n(C)c3c2=O)c1` [Compound 19], the AC50 was over 800 nM.

Turning to `Cc1nc2c(s1)c1cnn(CCOCCO)c(=O)c1n2C` [Compound 20], the AC50 is over 800 nM.

In the case of `COc1cccc(Cn2ncc3c4sc(C(=O)c5cccc(O)c5)nc4n(C)c3c2=O)c1` [Compound 21], the AC50 is under 300 nM.

As for `Cc1nc2c(s1)c1cnn(Cc3ccc4[nH]c(=O)[nH]c4c3)c(=O)c1n2C` [Compound 22], the AC50 was over 800 nM.

With `Cc1nc2c(s1)c1cnn(Cc3cccc4cn[nH]c34)c(=O)c1n2C` [Compound 23], the AC50 was in the range of 301 to 800 nM.

Regarding `CCOC(=O)Cn1ncc2c3sc(C)nc3n(C)c2c1=O` [Compound 24], the half-maximal activity concentration (AC50) was over 800 nM.

In the case of `Cc1nc2c(s1)c1cnn(CCO)c(=O)c1n2C` [Compound 25], the AC50 was over 800 nM.

As to `Cc1nc2c(s1)c1cnn(Cc3cn[nH]c3)c(=O)c1n2C` [Compound 26], the half-maximal activity concentration (AC50) fell in the range of 301 to 800 nM.

`Cn1c2nc([S+](C)[O-])sc2c2cnn(Cc3ccc(C#N)cc3)c(=O)c21` (centres unmarked) [Compound 27]: the AC50 is 301 to 800 nM.

In the case of `Cc1nc2c(s1)c1cnn(Cc3cccc4c3cnn4C)c(=O)c1n2C` [Compound 28], the AC50 is under 300 nM.

Regarding `Cn1c2nc([S+](C)[O-])sc2c2cnn(Cc3ccnc(N)c3)c(=O)c21` (centres unmarked) [Compound 29], the AC50 is 301 to 800 nM.

As to `Cn1c2nc([S+](C)[O-])sc2c2cnn(Cc3cccc4c3CCNC4)c(=O)c21` (centres unmarked) [Compound 30], the AC50 is under 300 nM.

Consider `Cn1c2nc(Cc3cc[nH]n3)sc2c2cnn(Cc3cccc4[nH]ncc34)c(=O)c21` [Compound 31], for which the half-maximal activity concentration (AC50) was under 300 nM.

Consider `CC(=O)c1cccc(Cn2ncc3c4sc([S+](C)[O-])nc4n(C)c3c2=O)c1` (centres unmarked) [Compound 32], for which the concentration at half-maximal activity (AC50) was under 300 nM.
